Experimental data reported in patent US10906909B2, “Treatment of cognitive and mood symptoms in neurodegenerative and neuropsychiatric disorders with ALPHA5-containing GABAA receptor agonists” (UWM Research Foundation, Inc., priority 2016, dated 2021).
Where “and” joins values, the source holds several entries; their conditions need not be identical. Equal entries are not always repeated. Entries after “also recorded” stand apart in the source; their conditions may differ.

Columns and labels:
rats [1] = experiment: Social novelty discrimination (SND); format: in vivo, rat; details: 2.5 mg/kg diazepam (so in the source)
Method: The SND test compares the social investigation times of an adult rat with a familiar and a novel juvenile rat. Testing consisted of two consecutive juvenile presentations periods to an adult subject: period 1 (P1) and period 2 (P2). At the beginning of P1, one juvenile was placed into the adult home cage and the time spent by the adult investigating the juvenile (anogenital sniffing, licking, close pursuing and pawing) was recorded manually for 5 min. During P2, the same juvenile and a second, novel juvenile were placed in the cage together with the adult, and the times spent by the adult investigating each juvenile were measured independently for 3 min. A different pair of juvenile rats was presented to each adult tested. Manual scoring was conducted in a blinded manner. SND was deliberately impaired in control rats by the parametric manipulation applied, as there was 30 min delay between P1 and P2, and their SND was expected to be low. The influence of MP-III-022 (1, 2.5 or 10 mg/kg) on the thus induced impairment in SND was examined. There were five groups of rats which received one of the following treatments 20 min before P1: solvent, 1.5 mg/kg diazepam and 1, 2.5 and 10 mg/kg MP-III-022. The amount of time investigating familiar (Tf) and novel (Tn) juvenile during P2 was manually scored, and discrimination indexes (Tn−Tf/Tn+Tf) was calculated. Total exploration time during P1 and P2 was also manually recorded.

rats [2] = experiment: Morris water maze; format: in vivo, rat; details: diazepam 2 mg/kg, positive control
Method: The potential of MP-III-022 to affect cognitive performance of rats was assessed in 2 well-validated behavioral models. First, Morris water maze experiments were performed in a 2 m diameter circular pool filled to a height of 30 cm with water at 22±1° C. The escape platform (15 cm×10 cm) was submerged 2 cm below the water surface. All experimental details were as described in Savic et al. (Int. J. Neuropsychopharmacol. 2009, 12, 1179-1193). On each of the five consecutive days rats were given one swimming block, consisting of four trials. For each trial the rat was placed in the water at one of four pseudo-randomly determined starting positions. Once the rat has found and mounted the escape platform it was permitted to remain on the platform for 15 s. […] During the acquisition phase, treatments were applied once daily before the swimming block. On the sixth day, rats were given a treatment-free probe test (60 s) without the platform. The probe test was started from the novel, most distant location. Dependent variables chosen for tracking during the acquisition trials were: escape latency (s), total distance traveled (m), path efficiency (the ratio of the shortest possible path length to actual path length), % of distance swam in the peripheral annulus and mean speed (m/s). The selected parameters in the probe test were the distance swam in the target zone […] and % of the distance swam in the peripheral annulus. We tested the effects of 1, 2.5 and 10 mg/kg MP-III-022 and 2 mg/kg diazepam as control drug. The doses of MP-III-022 were selected so that they elicit a mild, moderate and strong positive modulation of α5GABAARs, respectively, in accordance with the analysis of thorough pharmacokinetic and electrophysiological data presented in Stamenic et al. (Eur. J. Pharmacol. 2016, 791, 433-443). The data from the acquisition days in the Morris water maze were averaged for each rat (total data/total number of trials per day) and analyzed using two-way ANOVA with repeated measures (factors: Treatment and Days) with Days as the repeated measure. In the case of significant interaction, separate one-way ANOVAs were conducted to assess the influence of treatment within individual levels of factor Days. The data from the probe test were assessed using one-way ANOVA.

[3] = test system: Female Swiss Webster mice; experiment: Rotarod sensorimotor / locomotor coordination; format: in vivo, mouse; details: for sensorimotor impairment on rotarod (time of fall): 40 mg/kg oral gavage, 15 rpm, 3 min, 10, 30, 60 min after dosing
Method: Female Swiss Webster mice (10 weeks of age) from Charles River Laboratory, WIL, MA were used for the experiments. The animals were housed under specific pathogen-free conditions, under standard conditions of humidity, temperature and a controlled 12 h light and dark cycle and had free access to food and water. The sensorimotor rotarod test was carried out 10, 30 and 60 minutes after the injection. Mice were tested on a rotarod at 15 rpm for maximum 3 min and the time of fall was recorded. Falling before the 3 minutes period of testing assesses of locomotor coordination impairment induced by the compound.
Mice (N=10/group) received a single administration via oral gavage of test compound (40 mg/kg), diazepam (5 mg/kg), or vehicle (2% polyethylene glycol, 2.5% hydroxypropylmethyl cellulose solution).

[4] = test system: mice subjected to chronic restraint stress (CRS); experiment: Y-maze alternation task, chronic restraint stress (CRS) mice; format: in vivo, mouse; details: Dose 5 mg/kg
Method: C57/B16 mice, males and females were ordered from Jackson Laboratories at 8 weeks old and were kept in normal housing conditions (12 h light ON cycle starting at 7 am/water and food ad libitum) for one week. During this week, animals were single housed and handled to reduce the anxiety-like response toward the experimenter. To induce a working memory deficit, mice were subjected to a chronic restraint stress protocol (CRS). They were placed in a 50 ml Falcon® tube, twice a day, for 1 hour during their diurnal cycle. The time of occurrence of the stress was randomized every day to avoid predictability. CRS was not applied on testing days. Y-maze test occurred 15 hours minimum after the last stressor.
Mice were first habituated to the Y-maze apparatus and distal cues during 2 consecutive days over a 10 min free exploration session (one session per day). The next day, animals performed a training session consisting in seven successive trials separated by a 30 s inter-trial interval (ITI); during this training session, mice were familiarized with the experimental procedure (opening and closing of the doors and confinement into the goal arms). For each trial, mice remained in the start-box for a 30 s ITI. Then, the door was opened and the mouse was allowed to enter freely one of the two goal arms; the chosen arm was closed and the choice was recorded. After a 30 s confinement period into the chosen arm, the mouse was removed and brought back to the start-box for a second trial identical to the first one and this procedure was repeated over the series of trials.
The same general procedure used in the training session was implemented 24 h later, except that the ITI was lengthened to 90 s. For this experiment, animals were acutely injected i.p. with vehicle or αPAM, 30 minutes before the beginning of the test. To dissociate memory deficits from an eventual progressive loss of motivation to alternate over the series, an 8th trial was added to the series which was separated from the 7th trial by a shorter ITI (5 s). All animals failing to alternate at the 8th trial were excluded. The mean alternation rate was calculated and was expressed in percentage (number of alternation done by the animal/total number of alternation possible×100)±SEM. The percentage of alternation during the entire task is considered as an index of working memory performance (50% of being a random alternation rate). Factorial ANOVA was applied to the data to reveal differences between groups. If the ANOVA was significant for group effect (p<0.05), Scheffe post-hoc analysis were conducted to identify which groups are different from each other.
All drugs were diluted in a vehicle solution containing 85% H2O, 14% propylene glycol (Sigma Aldrich) and 1% Tween 80 (Sigma Aldrich). Working solutions were prepared at a concentration of 10 mg/mL and administered i.p. adjusted to the body weight of each animal. Doses used were either 1, 5, 10 or 20 mg/kg. For all Y maze experiments, animals were acutely injected i.p. with vehicle or αPAM, 30 minutes before the beginning of the test.

adult male Wistar rats = experiment: Spontaneous locomotor activity in rats; format: in vivo, rat; details: 10 mg/kg i.p.; for distances traveled in 5-min intervals: 60 min recording; for overall distance traveled during 60 min (spontaneous locomotor activity): vs SOL
Method: (FIG. 23). […] Procedure for the assessment of locomotor activity changes induced by additional ligands in rats. […] The test was performed in the apparatus consisting of four white and opaque Plexiglas chambers (40×25×35 cm) under dim red light (20 lux). Digital camera mounted above the apparatus recorded the animal activity, which was tracked and analyzed using ANY-maze Video Tracking System software (Stoelting Co, Wood Dale, Ill., USA). […] The 10 mg/kg dose of each of ligands or SOL were applied i.p. in the 10 ml/kg volume and a single rat was immediately placed in the center of the chamber. The activity was tracked for a total of 60 min. Chambers were cleaned with diluted ethanol after every trial. Statistical analysis (one-way ANOVA and post hoc SNK tests where applicable) was performed in SigmaPlot 11 software (Systat, USA).

[5] = Human liver microsome stability assay; format: in vitro ADME; details: 10 μM compound
Method: (§1) Human and mouse liver microsomes were obtained fom BD Gentest.
(§2) Each evaluation included six independent assays carried out three at a time, on two different days
(§3) 2. For a total volume of Microsomal Assay Mixture (MAM) 390 μL, sufficient for seven time points, combine the following
(§4) 3. Sonicate MAM for 5 min and meanwhile thaw microsomes (20 mg/mL) (BD Gentest, Cat #452156) on ice.
(§5) 4. Aliquot 100 μL of ice cold ISTD into 7 separate 1.5 mL conical vials and label them the time points for 0, 10, 20, 40, 60, 90, and 120 min.
(§6) 5. Arrange the timer. Microsomes (Final concentration of 0.5 mg/mL) should be added to all time points except the zero time point.
(§7) 6. Add 50 μL of the MAM solution to the conical vial labelled as zero time point. Place the remaining MAM solution in the incubator (37° C.) for 5 min and initiate the reaction with addition of microsomes (8.8 μL) and record the time.
(§8) 7. At the end of each time interval remove 50 μL and add 100 μL to ISTD in conical vial, sonicate for 10 sec and spin down at 10,000 rpm for 5 minutes.
(§9) 8. Take 100 μL of supernatant and transfer to Spin-X HPLC filter tubes (Corning Incorporated, Cat #8169) and centrifuge at 13,000 rpm for 5 minutes and take 5 μL from this solution and dilute in 495 μL of LCMS grade methanol (Fischer scientific, CAS #67-56-1) in an 2 mL glass auto sampler vial (Microsolv, Cat #95025-WCV) 9. The samples are analyzed by LCMS-8040. (Shimadzu)
(§10) Calculation: From the peak area, calculate the following
(§11) The compounds are tested for the metabolic stability in the Human and Mouse Liver microsomes at 10 μM concentration.

HEPG2 = experiment: Cytotoxicity assay (CellTiter-Glo), HEPG2; format: cell-based, human; details: 48 hours incubation
Method: (§12) Human liver hepatocellular carcinoma (HEPG2) and human embryonic kidney 293 (HEK293) cell lines were purchased (ATCC) and cultured in 75 cm2 flasks (CellStar). Cells were grown in DMEM/High Glucose (Hyclone, #SH3024301) media to which non-essential amino acids (Hyclone, #SH30238.01), 10 mM HEPES (Hyclone, #SH302237.01), 5×106 units of penicillin and streptomycin (Hyclone, #SV30010), and 10% of heat inactivated fetal bovine serum (Gibco, #10082147) were added. Cells were harvested using 0.05% Trypsin (Hyclone, #SH3023601), washed with PBS, and dispensed into sterile white, optical bottom 384-well plates (NUNC, #142762). After three hours, small molecule solutions were transferred with a Tecan Freedom EVO liquid handling system equipped with a 100 nL pin tool (V&P Scientific). The controls (E)-10-(bromotriphenylphosphoranyl)decyl 4-(4-(tert-butyl)phenyl)-4-oxobut-2-enoate (400 μM in DMSO, positive control) and DMSO (negative control). The cells were incubated for 48 hours followed by the addition of CellTiter-Glo™, a luminescence-based cell viability assay (Promega, Madison, Wis.). All luminescence readings were performed on a Tecan Infinite M1000 plate reader. The assay was carried out in quadruplet with three independent runs. The data was normalized to the controls and analyzed by nonlinear regression (GraphPad Prism).

[6] = Pharmacokinetics in mice (plasma, liver, brain); details: i.p. dosing at 3 mg/kg
[7] = Mouse liver microsome stability assay; format: in vitro ADME; details: 10 μM compound
Method: as §1, §2, §3, §4, §5, §6, §7, §8, §9, §10, §11

HEK293 = experiment: Cytotoxicity assay (CellTiter-Glo), HEK293; format: cell-based, human; details: 48 hours incubation
Method: as §12

Row | SMILES | time exploring the familiar and the novel juvenile rat during P2 (rats [1]) | spatial learning during acquisition in the water maze (rats [2]) | sensorimotor performance on rotarod (time of fall) ([3]; diazepam 5 mg/kg oral gavage, positive control) | Alternation rate (%) [4] | distances traveled in 5-min intervals (adult male Wistar rats) | overall distance traveled during 60 min (spontaneous locomotor activity) (adult male Wistar rats) | % left after 2 hr. (Human LM) ([5]; 2 hr) | half-life at 10 μM ([5]; human, liver microsomes, read-out: Half-life (min) (HumanLM)) | HEPG2 LD50 (HEPG2) | molar concentration range reached in mouse brain tissue [6] | sensorimotor impairment on rotarod (time of fall) [3] | % left after 2 hr. (MouseLM) [7] | half-life at 10 μM ([7]; mouse, liver microsomes, read-out: Half-life (min) (MouseLM)) | HEK293 LD50 (HEK293) | Half-life (min) (HumanLM) [5] | Half-life (min) (MouseLM) [7]
1 | CN1C(=O)CN=C(c2ccccc2)c2cc(Cl)ccc21 [diazepam, reference compound] | statistical trend | spatial learning incapacitation | sensorimotor steadiness at 10 minutes | – | – | – | – | – | – | – | – | – | – | – | – | –
2 | CNC(=O)c1ncn2c1CN=C(c1ccccc1F)c1cc(Br)ccc1-2 [RV-II-04] | – | – | – | 54.1% | induced sedation during nearly the whole period of recording | profound sedation; also recorded: sedated when compared to all other groups | 80.2 ± 0.4% | 595 ± 157 min | >200 µM | micromolar concentrations | most severe motor impairment | 73.7 ± 0.3% | 302 ± 33 min | >200 µM | – | –
3 | C#Cc1ccc2c(c1)C(c1ccccc1F)=N[C@@H](C)c1c(C(=O)NC)ncn1-2 [MP-III-023, (S)-8-ethynyl-6-(2-fluorophenyl)-N,4-dimethyl-4H-benzo[f]imidazo[1,5-a][1,4]diazepine-3-carboxamide] | – | – | – | 62.5% | induced sedation during nearly the whole period of recording | profound sedation | – | – | >200 µM | micromolar concentrations | most severe motor impairment | 84.6% and 84.6 ± 0.2% | – | >200 µM | 1790 ± 40 min | 846 ± 5 min
